From patent US11286228B2, “Stilbene derivative and method for preparing same” (Ozchela Inc., priority 2016, dated 2022)

test system: hepatitis C virus; assay: Antiviral activity in HCV replicon cells (Renilla luciferase); type: cell-based; details: Hepatitis C virus; HCV replicon cells, 72 hr, Renilla luciferase, relative to DMSO; read-out: Test Example 3: antiviral activity (EC50)
Procedure: The antiviral activity of the stilbene derivatives on hepatitis C virus was measured. The replicon cells that stably replicate the hepatitis C virus genome were attached to a culture plate and cultured in a CO2 incubator at 37° C. for 24 hr. The replicon cells cultured for one day were washed with a PBS solution, treated with the compounds of the present invention, and then cultured for 72 hr. The stilbene derivative-treated replicon cells were washed with a cold PBS solution and added with 20 μL of a cell lysis solution so that the cells were lysed in ice for 20 min. 100 μL of a Renilla luciferase substrate was added thereto, after which the luminescence thereof was measured and thus the amount of the hepatitis C virus genome was estimated. The amount of the hepatitis C virus genome in the stilbene derivative-treated replicon cells according to the present invention relative to the amount of the hepatitis C virus genome in dimethylsulfoxide (DMSO)-treated replicon cells is shown.
Compounds 1 to 155 of Tables 1 to 10 may be grouped as follows based on the antiviral activity (EC50) values: […]

Row | Compound | EC50 [µM]
1 | CC(C)(C)Cc1ccc(C=Cc2ccccc2C(=O)OCC2CCCCN2)cc1 (stereo not drawn) [Compound 75] | 0.5 to 5
2 | CC(C)(C)Cc1ccc(C(F)=Cc2ccccc2C(=O)OCc2ccccc2)cc1 [Compound 120] | < 0.5
3 | Cc1ccc(C(C#N)=Cc2ccccc2N(C)C)cc1 [Compound 1] | 5 to 50
4 | CN(C)CCCOc1cccc(C=C(C#N)c2ccc([N+](=O)[O-])cc2)c1 [Compound 33] | 5 to 50
5 | CC(C)(C)Cc1ccc(C(Cl)=Cc2ccccc2C(=O)OC2CCCCC2)cc1 [Compound 121] | < 0.5
6 | CCCCOC(=O)c1c(C=C(N)c2ccc(CC(C)(C)C)cc2)ccc(C)c1C [Compound 102] | 0.5 to 5
7 | CC(C)CCOc1cccc(C=C(C#N)c2ccc([N+](=O)[O-])cc2)c1 [Compound 32] | 5 to 50
8 | CC(C)c1ccccc1C=C(C#N)c1ccc([N+](=O)[O-])cc1 [Compound 23] | 5 to 50
9 | CCCCOC(=O)c1c(C=C(F)c2ccc(CC(C)(C)C)cc2)ccc(C)c1C [Compound 116] | < 0.5
10 | CC(=Cc1ccccc1C(=O)OCC1CCCCN1)c1ccc(CC(C)(C)C)cc1 (stereo not drawn) [Compound 91] | 0.5 to 5
11 | N#CC(=Cc1ccccc1C(=O)O)c1ccc(CCC2CC2)cc1 [Compound 62] | < 0.5
12 | CCc1ccccc1C=C(C#N)c1ccc([N+](=O)[O-])cc1 [Compound 22] | 5 to 50
13 | CC(C)(C)c1ccc(CCc2ccccc2C=C(C#N)c2ccc([N+](=O)[O-])cc2)cc1 [Compound 45] | 0.5 to 5
14 | CCCCOC(=O)c1ccccc1C=C(Br)c1ccc(CC(C)CC)cc1 (stereo not drawn) [Compound 122] | 0.5 to 5
15 | CC(C)c1ccc(C(C#N)=Cc2ccccc2C(=O)O)cc1 [Compound 5] | 5 to 50
16 | CCCCOC(=O)c1ccccc1C=Cc1ccc(CC(C)(C)C)cn1 [Compound 143] | 0.5 to 5
17 | CC(C)(C)Cc1ccc(C=Cc2ccccc2C(=O)OC2CCCCC2)cc1 [Compound 77] | 0.5 to 5
18 | CCCCOC(=O)c1c(C)cccc1C=C(Cl)c1ccc(CC(C)(C)C)cc1 [Compound 113] | < 0.5
19 | CCCCOC(=O)c1ccccc1C=C(C)c1ccc(CC(C)(C)C)cc1C [Compound 84] | 0.5 to 5
20 | CC(C)(C)Cc1ccc(C(N)=Cc2ccccc2C(=O)OCC2CCCCC2)cc1 [Compound 105] | 0.5 to 5
21 | CCCCOC(=O)c1ccccc1C=C(C)c1ccc(CC2CCCC2)cc1 [Compound 95] | 0.5 to 5
22 | Cc1cccc(C=Cc2ccc(CC(C)(C)C)cc2)c1C(=O)O [Compound 139] | < 0.5
23 | CCCCOC(=O)c1ccccc1C=C(N)c1ccc(CC2CCCCC2)cc1 [Compound 110] | 0.5 to 5

same assay, conditions: Hepatitis C virus; HCV replicon cells; read-out: Test Example 3: antiviral activity (EC50) group

Row | Compound | EC50 [µM]
24 | CCCCOC(=O)c1cnccc1C=Cc1ccc(CC(C)(C)C)cc1 [Compound 146] | 0.5 to 5

test system: mitochondria obtained from hepatocytes; assay: Inhibitory activity on calcium-induced mitochondrial swelling (absorbance 520 nm); details: Hepatocyte; calcium-induced swelling of extracted mitochondria; read-out: Test Example 4: inhibiting mitochondrial swelling (IC50)
From the text: Cyclophilin is a key protein for forming permeability transition pores (PTP) in mitochondria. When permeability transition pores are formed, mitochondria swell, whereby the outer membrane thereof ruptures and thus cell death progresses. Such mitochondrial dysfunction causes many diseases including neurodegenerative diseases, cancer, and the like. Cyclosporine, a known cyclophilin inhibitor, is capable of preventing the formation of permeability transition pores to thus suppress mitochondrial swelling.
The mitochondrial swelling test was performed as follows. Specifically, the hepatocytes were disrupted using a Dounce tissue grinder. The disrupted cells were centrifuged at 700×g for 10 min and the supernatant was transferred into a new tube. The supernatant was centrifuged at 12,000×g for 15 min, thereby obtaining mitochondria.
When the extracted mitochondria were added with calcium, they swelled, which may be observed by measuring the absorbance at 520 nm. The stilbene derivatives are effective at inhibiting mitochondrial swelling due to calcium.
The activity of Compounds 1 to 155 of Tables 1 to 10 on inhibiting mitochondrial swelling may be determined based on IC50 values, and may be grouped as follows: […]

Row | Compound | IC50 [µM]
25 | CC(C)(C)Cc1ccc(C=Cc2ccccc2C(=O)OCC2CCCCN2)cc1 (stereo not drawn) [Compound 75] | 5 to 50
26 | CC(C)(C)Cc1ccc(C(F)=Cc2ccccc2C(=O)OCc2ccccc2)cc1 [Compound 120] | < 5
27 | Cc1ccc(C(C#N)=Cc2ccccc2N(C)C)cc1 [Compound 1] | 50 to 500
28 | CN(C)CCCOc1cccc(C=C(C#N)c2ccc([N+](=O)[O-])cc2)c1 [Compound 33] | 50 to 500
29 | CC(C)(C)Cc1ccc(C(Cl)=Cc2ccccc2C(=O)OC2CCCCC2)cc1 [Compound 121] | < 5
30 | CCCCOC(=O)c1c(C=C(N)c2ccc(CC(C)(C)C)cc2)ccc(C)c1C [Compound 102] | 5 to 50
31 | CC(C)CCOc1cccc(C=C(C#N)c2ccc([N+](=O)[O-])cc2)c1 [Compound 32] | 50 to 500
32 | CC(C)c1ccccc1C=C(C#N)c1ccc([N+](=O)[O-])cc1 [Compound 23] | 50 to 500
33 | CCCCOC(=O)c1c(C=C(F)c2ccc(CC(C)(C)C)cc2)ccc(C)c1C [Compound 116] | < 5
34 | CC(=Cc1ccccc1C(=O)OCC1CCCCN1)c1ccc(CC(C)(C)C)cc1 (stereo not drawn) [Compound 91] | 5 to 50
35 | N#CC(=Cc1ccccc1C(=O)O)c1ccc(CCC2CC2)cc1 [Compound 62] | < 5
36 | CCc1ccccc1C=C(C#N)c1ccc([N+](=O)[O-])cc1 [Compound 22] | 50 to 500
37 | CC(C)(C)c1ccc(CCc2ccccc2C=C(C#N)c2ccc([N+](=O)[O-])cc2)cc1 [Compound 45] | 5 to 50
38 | CCCCOC(=O)c1ccccc1C=C(Br)c1ccc(CC(C)CC)cc1 (stereo not drawn) [Compound 122] | 5 to 50
39 | CC(C)c1ccc(C(C#N)=Cc2ccccc2C(=O)O)cc1 [Compound 5] | 50 to 500
40 | CCCCOC(=O)c1ccccc1C=Cc1ccc(CC(C)(C)C)cn1 [Compound 143] | 5 to 50
41 | CC(C)(C)Cc1ccc(C=Cc2ccccc2C(=O)OC2CCCCC2)cc1 [Compound 77] | 5 to 50
42 | CCCCOC(=O)c1c(C)cccc1C=C(Cl)c1ccc(CC(C)(C)C)cc1 [Compound 113] | < 5
43 | CCCCOC(=O)c1ccccc1C=C(C)c1ccc(CC(C)(C)C)cc1C [Compound 84] | 5 to 50
44 | CC(C)(C)Cc1ccc(C(N)=Cc2ccccc2C(=O)OCC2CCCCC2)cc1 [Compound 105] | 5 to 50
45 | CCCCOC(=O)c1ccccc1C=C(C)c1ccc(CC2CCCC2)cc1 [Compound 95] | 5 to 50
46 | Cc1cccc(C=Cc2ccc(CC(C)(C)C)cc2)c1C(=O)O [Compound 139] | < 5
47 | CCCCOC(=O)c1ccccc1C=C(N)c1ccc(CC2CCCCC2)cc1 [Compound 110] | 5 to 50

same assay, conditions: Hepatocyte; read-out: Test Example 4: activity on inhibiting mitochondrial swelling (IC50) group

Row | Compound | IC50 [µM]
48 | CCCCOC(=O)c1cnccc1C=Cc1ccc(CC(C)(C)C)cc1 [Compound 146] | 5 to 50

biological target: cyclophilin; assay: Cis-trans isomerase inhibitory activity (chymotrypsin-coupled Suc-AAPF-pNA cleavage, absorbance 390 nm); type: biochemical; details: cyclophilin, chymotrypsin, Suc-AAPF-pNA; read-out: Test Example 1: cis-trans isomerase inhibitory activity (IC50)
From the text: Chymotrypsin cleaves a trans-type alanine-proline peptide bond. When Suc-AAPF-pNA (a peptide substrate) and chymotrypsin are mixed, the trans-type peptide substrate is cleaved and the cis-type peptide substrate remains. The remaining cis-type peptide substrate is converted into a trans form by a cis-trans isomerase and is then cleaved again by chymotrypsin. When the cis-trans isomerase is present, chymotrypsin is able to cleave a larger amount of trans-type peptide substrate within a predetermined period of time, from which the activity of the cis-trans isomerase may be determined. The amount of the cleaved trans-type peptide substrate is measured using absorbance at 390 nm. Cyclophilin has cis-trans isomerase activity, and accelerates the cleavage of trans-type peptide substrate by chymotrypsin. When the stilbene derivatives of the present invention were treated together with cyclophilin, the cleavage of the peptide substrate by chymotrypsin was not observed to accelerate. Thereby, the stilbene derivatives of the invention can be concluded to inhibit the activity of cyclophilin.

Row | Compound | IC50 [µM]
49 | CC(C)(C)Cc1ccc(C=Cc2ccccc2C(=O)OCC2CCCCN2)cc1 (stereo not drawn) [Compound 75] | 0.02 to 0.2
50 | CC(C)(C)Cc1ccc(C(F)=Cc2ccccc2C(=O)OCc2ccccc2)cc1 [Compound 120] | ≤ 0.02
51 | Cc1ccc(C(C#N)=Cc2ccccc2N(C)C)cc1 [Compound 1] | 0.2 to 2
52 | CN(C)CCCOc1cccc(C=C(C#N)c2ccc([N+](=O)[O-])cc2)c1 [Compound 33] | 0.2 to 2
53 | CC(C)(C)Cc1ccc(C(Cl)=Cc2ccccc2C(=O)OC2CCCCC2)cc1 [Compound 121] | ≤ 0.02
54 | CCCCOC(=O)c1c(C=C(N)c2ccc(CC(C)(C)C)cc2)ccc(C)c1C [Compound 102] | 0.02 to 0.2
55 | CC(C)CCOc1cccc(C=C(C#N)c2ccc([N+](=O)[O-])cc2)c1 [Compound 32] | 0.2 to 2
56 | CC(C)c1ccccc1C=C(C#N)c1ccc([N+](=O)[O-])cc1 [Compound 23] | 0.2 to 2
57 | CCCCOC(=O)c1c(C=C(F)c2ccc(CC(C)(C)C)cc2)ccc(C)c1C [Compound 116] | ≤ 0.02
58 | CC(=Cc1ccccc1C(=O)OCC1CCCCN1)c1ccc(CC(C)(C)C)cc1 (stereo not drawn) [Compound 91] | 0.02 to 0.2
59 | N#CC(=Cc1ccccc1C(=O)O)c1ccc(CCC2CC2)cc1 [Compound 62] | ≤ 0.02
60 | CCc1ccccc1C=C(C#N)c1ccc([N+](=O)[O-])cc1 [Compound 22] | 0.2 to 2
61 | CC(C)(C)c1ccc(CCc2ccccc2C=C(C#N)c2ccc([N+](=O)[O-])cc2)cc1 [Compound 45] | 0.02 to 0.2
62 | CCCCOC(=O)c1ccccc1C=C(Br)c1ccc(CC(C)CC)cc1 (stereo not drawn) [Compound 122] | 0.02 to 0.2
63 | CC(C)c1ccc(C(C#N)=Cc2ccccc2C(=O)O)cc1 [Compound 5] | 0.2 to 2
64 | CCCCOC(=O)c1ccccc1C=Cc1ccc(CC(C)(C)C)cn1 [Compound 143] | 0.02 to 0.2
65 | CC(C)(C)Cc1ccc(C=Cc2ccccc2C(=O)OC2CCCCC2)cc1 [Compound 77] | 0.02 to 0.2
66 | CCCCOC(=O)c1c(C)cccc1C=C(Cl)c1ccc(CC(C)(C)C)cc1 [Compound 113] | ≤ 0.02
67 | CCCCOC(=O)c1ccccc1C=C(C)c1ccc(CC(C)(C)C)cc1C [Compound 84] | 0.02 to 0.2
68 | CC(C)(C)Cc1ccc(C(N)=Cc2ccccc2C(=O)OCC2CCCCC2)cc1 [Compound 105] | 0.02 to 0.2
69 | CCCCOC(=O)c1ccccc1C=C(C)c1ccc(CC2CCCC2)cc1 [Compound 95] | 0.02 to 0.2
70 | Cc1cccc(C=Cc2ccc(CC(C)(C)C)cc2)c1C(=O)O [Compound 139] | ≤ 0.02
71 | CCCCOC(=O)c1ccccc1C=C(N)c1ccc(CC2CCCCC2)cc1 [Compound 110] | 0.02 to 0.2

same assay, conditions: read-out: Test Example 1: cis-trans isomerase inhibitory activity (IC50) group

Row | Compound | IC50 [µM]
72 | CCCCOC(=O)c1cnccc1C=Cc1ccc(CC(C)(C)C)cc1 [Compound 146] | 0.02 to 0.2
